The values below come from patent US11214772B2, “Production method for retinal tissue” (SUMITOMO DAINIPPON PHARMA CO., LTD., priority 2014, dated 2022).

Holding throughout (type): cell-based
The subject of experiment [1] is human iPS cells (DSPC-3 strain). Kind of experiment: Bright field observation of cell aggregates in suspension culture (neuroepithelium formation). Particulars: Example 8; StemFit; SAG 300 nM day 0; day 22. The procedure:
The thus-prepared subconfluent human iPS cells were treated with the cell dispersion solution by using TrypLE Select (manufactured by Life Technologies), further dispersed into single cells by pipetting operation, and the above human iPS cells dispersed into single cells were suspended in 100 μl of a serum-free medium at 1.2×10^4 cells per well of a non-cell-adhesive 96-well culture plate (SUMILON SPHEROID V-bottom plate PrimeSurface 96V-bottom plate, SUMITOMO BAKELITE). Thereafter, the cells were subjected to suspension culturing at 37° C., 5% CO2. As the serum-free medium (gfCDM+KSR) therefor, a serum-free medium which is a 1:1 mixture of F-12 medium and IMDM medium supplemented with 10% KSR, 450 μM 1-monothioglycerol, 1× Chemically defined lipid concentrate was used. At the time of the start of suspension culturing (day 0 after the start of suspension culturing, start of step 2), the above serum-free medium supplemented with Y27632 (final concentration 20 μM) and further supplemented with SAG as an exogenous Shh signal transduction pathway activating substance (final concentration 300 nM), or not supplemented with SAG (final concentration 0 nM) was used (FIG. 10). On day 2 after the start of suspension culturing, cell aggregates were formed. […]

Experiment [2] shares this test system. Kind of experiment: Immunostaining of aggregate frozen sections for retinal tissue markers Chx10 and Rx. Particulars: Example 8; SAG 300 nM day 0; BMP4 1.5 nM day 3; day 22. An excerpt: Cell aggregates on day 22 after the start of suspension culturing were fixed with 4% para-formaldehyde to produce frozen sections. These frozen sections were immunostained for Chx10 (anti-Chx10 antibody, Exalpha, sheep), which is one of the retinal tissue markers, or Rx (anti-Rx antibody, manufactured by Takara, guinea pig), which is one of the retinal tissue markers.

For experiment [3], the system named is human iPS cells (201B7 strain). Description: Bright field observation of cell aggregates in suspension culture (neuroepithelium formation). The settings on record: day 18. On the procedure: The thus-prepared subconfluent human iPS cells were treated with the cell dispersion solution by using TrypLE Select (manufactured by Life Technologies), further dispersed into single cells by pipetting operation, and the above human iPS cells dispersed into single cells were suspended in 100 μl of a serum-free medium at 1.2×10^4 cells per well of a non-cell-adhesive 96-well culture plate (PrimeSurface 96V-bottom plate, SUMITOMO BAKELITE). Thereafter, the cells were subjected to suspension culturing at 37° C., 5% CO2. As the serum-free medium (gfCDM+KSR) therefor, a serum-free medium which is a 1:1 mixture of F-12 medium and IMDM medium supplemented with 10% KSR, 450 μM 1-monothioglycerol, 1× Chemically defined lipid concentrate was used. At the time of the start of suspension culturing (day 0 after the start of suspension culturing, start of step 2), a serum-free medium supplemented with SAG (final concentration […]) as a Shh signal transduction pathway activating substance and Y27632 (20 μM) was used (FIG. 5A-D). By day 2 after the start of suspension culturing, cell aggregates were formed. On day 3 after the start of suspension culturing, a serum-free medium (50 μl) free of Y27632 and SAG was added. […] The thus-prepared cell aggregates were subjected to bright field observation under an inverted microscope (BIOREVO manufactured by KEYENCE) on day 18 after the start of suspension culturing.
The thus-prepared subconfluent human iPS cells were treated with the cell dispersion solution by using TrypLE Select (manufactured by Life Technologies), further dispersed into single cells by pipetting operation, and the above human iPS cells dispersed into single cells were suspended in 100 μl of a serum-free medium at 1.0×10^4 cells per well of a non-cell-adhesive 96-well culture plate (SUMILON SPHEROID V-bottom plate PrimeSurface 96V-bottom plate, SUMITOMO BAKELITE). Thereafter, the cells were subjected to suspension culturing at 37° C., 5% CO2. As the serum-free medium (gfCDM+KSR) therefor, a serum-free medium which is a 1:1 mixture of F-12 medium and IMDM medium supplemented with 10% KSR, 450 μM 1-monothioglycerol, 1× Chemically defined lipid concentrate was used. At the time of the start of suspension culturing (day 0 after the start of suspension culturing, start of step 2), the above serum-free medium supplemented with Y27632 (final concentration 20 μM) and further supplemented with SAG (final concentration 30 nM), Purmorphamine (manufactured by Wako, final concentration 0.2 μM), or human recombinant Shh (manufactured by R&D, Recombinant N-Terminus, final concentration 50 ng/ml) as a Shh signal transduction pathway activating substance was used (FIG. 8). On day 2 after the start of suspension culturing, a cell aggregates were formed. […]

Each structure is given as a SMILES string.

As to `CNC1CCC(N(Cc2cccc(-c3ccncc3)c2)C(=O)c2sc3ccccc3c2Cl)CC1` (centres unmarked) [SAG], in experiment [1], the “aggregate shape and neuroepithelium formation (bright field)” value is “cell aggregates were maintained, and neuroepithelium was formed”. In experiment [2], the “proportion of Chx10-positive cells in the total cells” value is “about 10%” and the “proportion of Rx-positive cells in the total cells” value is reported as “about 10%”. Further, the “neuroepithelium formation (bright field)” value in experiment [3] (Example 3, Essential 8, SAG 300 μM day 0, with or without BMP4 1.5 nM day 6) is “neuroepithelium was formed”. For the same molecule, the “neuroepithelium formation (bright field)” value in experiment [3] (Example 6, StemFit, SAG 30 nM, Purmorphamine 0.2 μM or human recombinant Shh 50 ng/ml day 0, BMP4 1.5 nM day 3) is “neuroepithelium was formed”.
